Experiments:
[1] = test system: platelet aggregation by ADP; test: inhibiting action on platelet aggregation by ADP (ADP TEST), plasma of orally treated rats; assay type: in vivo, Wistar rats; conditions: Rattus norvegicus, po, 3 h, read-out: Percentage inhibition of platelet aggregation (ADP test)
Experimental: (§1) A sample of blood is taken from the jugular vein of Wistar rats, which have previously been treated with the compound to be tested. From this blood, which is citrate-treated and centrifuged, there is reconstituted a plasma containing 600,000±20,000 platelets per mm^3, which is employed in all the aggregation measurements.
(§2) 0.4 ml. of plasma is treated in a siliconised tube provided with a bar magnet which is also siliconised. The tube is introduced into an aggregometer connected to an apparatus with which variations in optical density can be recorded. When the light transmission has reached a stable value, 0.5 ml. of a solution containing […] of ADP (adenosine diphosphate)is introduced into the tube.
(§3) Platelet aggregation then causes an increase in light transmission, followed by a reduction in light transmission due to the subsequent disaggregation stage.
(§4) The maximum variation in optical density thus determined relative to that of a plasma free of platelets characterises the intensity of aggregation.
(§5) The measurements are carried out during the 2 hours which follow the taking of the blood sample, this sample being taken 3 hours after treatment with the derivative to be tested.
(§6) Groups of 20 rats were used. Each group received a single dose of the compound to be tested, administered orally, the same compound being administered at different doses ranging from 5 mg./kg. to 100 mg./kg.
(§7) The results obtained are given in the following Tables II and III, which show the percentage inhibition of platelet aggregation obtained relative to the control experiment, 3 hours after treatment with the compound to be tested.

experimental thrombosis = test: anti-thrombosis activity, experimental thrombosis caused by extracorporal circulation (Umetsu and Sonoi); assay type: in vivo, rats; conditions: control (5% gum arabic) 30.41
Experimental: This activity was studied by the experimental thrombosis method caused by extracorporal circulation, described by Umetsu and Sonoi (Thrombos. Haemost., 39, […]).
The left jugular vein and the right external carotid are exposed in rats anaesthetised by an intraperitoneal injection of pentobarbital. A shunt is provided which consists of a central catheter and two lateral catheters. A natural white silk thread is introduced into the central part and the circulation is restarted for 20 minutes. After stopping the circulation by clamping, the thread is gently withdrawn and weighed immediately.
Treatment was carried out for 48 hours, 24 hours and 2 hours before the start of the blood circulation in shunt.
The test compounds were administered orally to different groups of animals in the form of a suspension in 10 ml. of 5% gum arabic/kg., the doses used being 12.5 mg./kg., 25 mg./kg., 50 mg./kg., 100 mg./kg. and 200 mg./kg.

[2] = test system: platelet aggregation by collagen; test: inhibiting action on platelet aggregation by collagen (COLLAGEN TEST), plasma of orally treated rats; assay type: in vivo, Wistar rats; conditions: Rattus norvegicus, po, 3 h, read-out: Percentage inhibition of platelet aggregation (collagen test)
Experimental: as §1, §2, §3, §4, §5
The ADP solution is replaced by a solution of collagen (extracted from cattle tendons).
as §6, §7

in vivo = conditions: mouse, iv
Text: This study was concerned with the acute, chronic, sub-chronic and delayed toxicities.

[3] = test system: platelet aggregation induced by ADP; test: kinetic study of platelet aggregation induced by ADP (Born's nephelometric method, Bryston aggregometer), intraperitoneal; assay type: in vivo; conditions: rats
Experimental: A further experiment was carried out, relating to the kinetic study of the compounds of the present invention.
The blood sample is taken 10 minutes and 60 minutes after this administration and is centrifuged to obtain a plasma enriched in platelets.
The platelet aggregation in the plasma, induced by ADP is measured in a Bryston aggregometer, using Born's nephelometric method.

O=C1C=C2CN(Cc3ccccc3Cl)CCC2S1 (centres unmarked) [Derivative 1, 5-(o-Chlorobenzyl)-5,6,7,7a-tetrahydro-4H-thieno-[3,2-c]pyridin-2-one]
inhibition at 5 mg/kg [1]: 51%
inhibition at 12.5 mg/kg [1]: 83.6%
inhibition at 25 mg/kg [1]: 83.7%
inhibition at 50 mg/kg [1]: 84%
inhibition at 100 mg/kg [1]: 84.1%
Average weight of the thrombi (experimental thrombosis; 12.5 mg/kg oral, 48, 24 and 2 hours before): 27.45 mg
Average weight of the thrombi (experimental thrombosis; 25 mg/kg oral, 48, 24 and 2 hours before): 12.21 mg
Average weight of the thrombi (experimental thrombosis; 50 mg/kg oral, 48, 24 and 2 hours before): 6.01 mg
Average weight of the thrombi (experimental thrombosis; 100 mg/kg oral, 48, 24 and 2 hours before): 4.76 mg
inhibition at 5 mg/kg [2]: 16.8%
inhibition at 12.5 mg/kg [2]: 46.8%
inhibition at 25 mg/kg [2]: 86.7%
inhibition at 50 mg/kg [2]: 89.6%
inhibition at 100 mg/kg [2]: 89.8%
LD50 at 24 h (in vivo): 113 mg/kg
percentage inhibition as a function of time (platelet aggregation, ADP) ([3]; 10 minutes after 100 mg/kg intraperitoneal in propylene glycol): 42%
percentage inhibition as a function of time (platelet aggregation, ADP) ([3]; 60 minutes after 100 mg/kg intraperitoneal in propylene glycol): 97%

From US4515951A, “Preparation of 5,6,7,7a-tetrahydro-4H-thieno[3,2-c]pyridin-2-one compounds” (Sanofi, priority 1980, dated 1985)
